Results as given in US8324188B2, “Combinations of ET-18-O-CH3and anti-cancer agents for the treatment of cancer” (priority 2006, dated 2012).
Values joined by “and” are separate entries in the source; they are usually repeats but may differ in a detail not shown here. Equal values may be shown once.

Experiments:
[1] = test system: LNCaP androgen-sensitive human prostate adenocarcinoma cells; assay: Apo-ONE Homogenous Caspase-3/7 Assay in LNCaP cells; assay type: cell-based; settings: AD + R1881, no CHEM
Procedure: FIG. 1. Depicts the in vitro effects of 1-O-octadecyl-2-O-methyl-glycero-3-phosphocholine (final concentration 10 μM), (ionizing) radiation (absorbed dose of 5 Gray units; indicated as “RT”), and a combination thereof on programmed cell death (apoptosis) and the survival rate of LNCaP androgen-sensitive human prostate adenocarcinoma cells. Apoptosis was determined using the Apo-ONE™ Homogenous Caspase-317 Assay, Promega, Inc., Madison, Wis., USA according to the manufacturers instructions. The percentage of living cancer cells was estimated by means of trypan blue dye exclusion as described (Freshney, R. I. (1994) Culture of Animal Cells: A Manual of Basic Technique. 3rd Ed. Wiley-Liss. New York. USA). The cells were exposed to radiation six hours after (FIG. 1A), concomitantly with (FIG. 1B), or six hours before administration of 1-O-octadecyl-2-O-methyl-glycero-3-phospho-choline (FIG. 1C). The caspase assay was performed 12 hours after exposure to radiation. The respective data shown represent the average of two independent experiments.
First, the in vitro effects of 1-O-octadecyl-2-O-methyl-glycero-3-phosphocholine, (ionizing) radiation, and a combination thereof on programmed cell death (apoptosis) and the survival rate of LNCaP androgen-sensitive human prostate adenocarcinoma cells were measured. The LNCaP cell line was established from a metastatic lesion of the adenocarcinoma. The cells were treated with a final concentration of 10 μM 1-O-octadecyl-2-O-methyl-glycero-3-phosphocholine and (ionizing) radiation corresponding to an absorbed dose of 5 Gray units.
Apoptosis was determined using the Apo-ONE™ Homogenous Caspase-3/7 Assay, Promega, Inc., Madison, VV1, USA according to the manufacturers instructions. The percentage of living tumor cells was estimated by means of trypan blue dye exclusion as described (Freshney, R. I. (1994) Culture of Animal Cells: A Manual of Basic Technique. 3rd Ed. Wiley-Liss. New York. USA)
The cells were exposed to radiation six hours after (FIG. 1A), concomitantly with (FIG. 1B), or six hours before administration of 1-O-octadecyl-2-O-methyl-glycero-3-phospho-choline (FIG. 1C). The caspase assay was performed 12 hours after exposure to radiation. The respective data shown represent the average of two independent experiments.
(§1) In a further approach, 10 μM 1-O-octadecyl-2-O-methyl-glycero-3-phosphocholine (final concentration; “CHEM”) and (ionizing) radiation (5 Gray units; “RT”) were administered simultaneously to the LNCaP cells but the subsequent incubation period was extended to 24 hours. Apoptosis was measured using the Apo-ONE™ Homogenous Caspase-3/7 Assay as described above and expressed as relative fluorescence units (RFLU). The percentage of apoptotic cells was determined by flow cytometric analysis of annexin V-PE positive-stained and 7-AAD (7-Amino ActinomycinD) negative-stained cells (both purchased from BD Biosciences, San Jose, Calif., USA) according to established standard protocols. The data represent means±SEM from three independent experiments.
(§2) Apoptosis was measured using the Apo-ONE™ Homogenous Caspase-3/7 Assay as described above and expressed as relative fluorescence units (RFLU). The percentage of apoptotic cells was determined via annexin V-PE/7-AAD staining as described above. The caspase-317 assay and annexin staining were performed 22 hours after CHEM treatment.

LNCaP cells = assay: flow cytometric analysis of annexin V-PE positive / 7-AAD negative LNCaP cells; assay type: cell-based, human; settings: AD + R1881, no CHEM
Procedure: as §1
Next, the interaction of 1-O-octadecyl-2-O-methyl-glycero-3-phosphocholine administration (“CHEM”) and androgen deprivation (“AD”) was investigated. LNCaP cells were deprived of androgen for two days by charcoal absorption of serum according to established procedures well known in the art. CHEM was added in a final concentration of 5 μM and 10 μM, respectively.
as §2

T98G = assay: WST-1 proliferation assay, T98G; assay type: cell-based; settings: Homo sapiens
Procedure: (§3) AP-121 was prepared as 5 mM stock solution in distilled sterile water, Temozolomide (TMZ) (Haorui Pharma-Chem, Inc., Edison, N.J.) was prepared as 100 mM in sterile filtrated DMSO; Adriamycin (ADR) (Sigma) was prepared as 1 mM in distilled sterile water; Camptothecin (CTP) (Sigma) was prepared as 10 mM solution in 0.1 N NaOH; Tarceva (Proteinkinase, Germany) was prepared as 5 mM solution in sterile DMSO. All compound stocks were kept at −20° C. 2000 cells were plated in each well of 96-well flat bottom plates, and incubated overnight at 37 °C in 5% CO2. The growth of plated cells was measured by adding […] of WST-1 reagent (Roche Applied Sciences, Germany) to 3 control wells and measuring the absorbance at 650 nm and at 450 nm, respectively, with a SpectraMax250 plate reader. […] After this incubation, VVST-1 reagent was added to the wells and OD650-OD450 values were calculated as before. six wells were assayed for each conditions and standard deviation was determined: all experiments were performed at least three times independently. […] Six different concentrations of each drug were used in combinations index measurements and compared to +/− cells, and compared to controls without compound.

LN-18 = assay: WST-1 proliferation assay, LN-18; assay type: cell-based; settings: Homo sapiens
Procedure: (§4) 2000 cells were plated in each well of 96-well flat bottom plates, and incubated overnight at 37 °C in 5% CO2. The growth of plated cells was measured by adding […] of WST-1 reagent (Roche Applied Sciences, Germany) to 3 control wells and measuring the absorbance at 650 nm and at 450 nm, respectively, with a SpectraMax250 plate reader. […] After this incubation, VVST-1 reagent was added to the wells and OD650-OD450 values were calculated as before. six wells were assayed for each conditions and standard deviation was determined: all experiments were performed at least three times independently. […] Six different concentrations of each drug were used in combinations index measurements and compared to +/− cells, and compared to controls without compound.

LN-229 = assay: WST-1 proliferation assay, LN-229; assay type: cell-based; settings: Homo sapiens
Procedure: (§5) 2000 cells were plated in each well of 96-well flat bottom plates, and incubated overnight at 37 °C in 5% CO2. The growth of plated cells was measured by adding […] of WST-1 reagent (Roche Applied Sciences, Germany) to 3 control wells and measuring the absorbance at 650 nm and at 450 nm, respectively, with a SpectraMax250 plate reader. If the OD650-OD450 values were above 0.5, the remainder of the plate was used for incubation with AP-121, other pharmacological agents or solvent control for 96 hours.
(§6) After this incubation, VVST-1 reagent was added to the wells and OD650-OD450 values were calculated as before. six wells were assayed for each conditions and standard deviation was determined: all experiments were performed at least three times independently. After elucidation of individual IC50 values for each compound, the simultaneous combination treatment of AP-121 and the chemotherapeutic agent at their IC50 ratio was performed; combination index (CI) was determined by Calcusyn software package (Biosoft, Ferguson, Mo.). Data were evaluated by calculating the means of the combination index (CI), where a CI of <0.3 indicates a strong synergistic effect, 0.3<CI<0.7 a synergistic effect, 0.7<CI<0.9 moderate synergy, 0.9<CI<1 additive effect and CI>1 antagonistic effect, respectively.
For the AP-121 cell proliferation drug combination measurements, the ED50 was determined for each drug. Six different concentrations of each drug were used in combinations index measurements and compared to +/− cells, and compared to controls without compound. Each combination was repeated 6 times at 2 different time points (24 and 96 hours), each of the above experiments was repeated 3 times to obtain valid results.

A172 = assay: WST-1 proliferation assay, A172; assay type: cell-based, human; settings: Homo sapiens, A 172
Procedure: as §3

U87MG = assay: WST-1 proliferation assay, U87MG; assay type: cell-based, human; settings: Homo sapiens, U-87 MG
Procedure: as §3

U118MG = assay: WST-1 proliferation assay, U118MG; assay type: cell-based, human; settings: Homo sapiens, U-118-MG
Procedure: as §3, with “compound. Each combination was repeated 6 times at 2 different time points (24 and 96 hours), each of the above experiments was repeated 3 times to obtain valid results.” for “compound.”

A431 = settings: mean ± SD from three independent experiments, read-out: ED50 values for induction of apoptosis; cited from earlier work
HeLa = settings: mean ± SD from three independent experiments, read-out: ED50 values for induction of apoptosis; cited from earlier work
HCC827 (FAS positive) = assay: WST-1 proliferation assay, HCC827; assay type: cell-based, human; settings: single agent, per experiment line
Procedure: as §4, with “DDP and GMZ” for “Six different concentrations of each drug”, “both purchased from Sigma-aldrich Corp., St. Louis, Mo., USA. The following cell lines were used: A549 (FAS negative), NCI-H460 (FAS positive),” for “used in combinations index measurements”, “HCC827 (FAS positive), all obtained from the ATTC, Rockville, Md., USA.” for “compared to +/− cells, and compared to controls without compound.”

NCI-H460 (FAS positive) = assay: WST-1 proliferation assay, NCI-H460; assay type: cell-based, human; settings: NCI-H460; single agent, per experiment line
Procedure: as §4, with “DDP and GMZ” for “Six different concentrations of each drug”, “both purchased from Sigma-aldrich Corp., St. Louis, Mo., USA. The following cell lines were used: A549 (FAS negative), NCI-H460 (FAS positive),” for “used in combinations index measurements”, “HCC827 (FAS positive), all obtained from the ATTC, Rockville, Md., USA.” for “compared to +/− cells, and compared to controls without compound.”

[2] = test system: brain tumor cell lines U87MG, A172, LN-18, LN-229, U118MG, and T98G; assay: WST-1 proliferation assay, summaries over the brain tumor cell line panel; assay type: cell-based, human; settings: together with AP-121; all three cell lines (U87MG, A172, U118MG)
Procedure: As a biological test panel, we selected the brain tumor cell lines U87MG, A172, LN-18, LN-229, U118MG, and T98G that have different levels of mutations in p53 and PTEN as well as FAS receptor expression:
as §5, with “If the OD650-OD450 values were above 0.5, the remainder of the plate was used for incubation with AP-121, other pharmacological agents or solvent control for 96 hours.” left out
as §6, with “respectively. […]” for “respectively.”

C[C@]1(O)CC[C@H]2[C@@H]3CCC4=CC(=O)CCC4=C3C=C[C@@]21C [R1881, reference compound]
Caspase-3/7 activity (RFLU) [1]: 130 RFLU
% Annexin V-PE pos. cells (LNCaP cells): 7.0%

C#Cc1cccc(Nc2ncnc3cc(OCCOC)c(OCCOC)cc23)c1 [Tarceva]
IC50 (T98G): 14.4 µM
IC50 (LN-18): 20 µM
IC50 (LN-229): 3.9 µM
IC50 (A172): 18.8 µM
IC50 (U87MG): 5.9 µM
IC50 (U118MG): 18.8 µM

CC[C@@]1(O)C(=O)OCc2c1cc1n(c2=O)Cc2cc3ccccc3nc2-1 [CPT, Camptothecin]
IC50 (T98G): 0.02 µM
IC50 (LN-18): 0.04 µM
IC50 (LN-229): 0.02 µM
IC50 (A172): 0.02 µM
IC50 (U87MG): 0.04 µM
IC50 (U118MG): 0.004 µM

CCCCCCCCCCCCCCCCCCOP(=O)([O-])OC1CC[N+](C)(C)CC1 [Perifosine]
EC50 (A431): 23.2 ± 2.7 µM
EC50 (HeLa): 9.27 ± 1.8 µM

CCCCCCCCCCCCCCCCOP(=O)([O-])OCC[N+](C)(C)C [HePC]
EC50 (A431): 17.3 ± 3 µM
EC50 (HeLa): 8.17 ± 0.4 µM

[NH2][Pt]([NH2])([Cl])[Cl] [DDP, cisplatinum, reference compound]
IC50 (HCC827 (FAS positive)): 3.4 µM and 3.5 µM
IC50 (NCI-H460 (FAS positive)): 1.3 µM

COc1cccc2c1C(=O)c1c(O)c3c(c(O)c1C2=O)C[C@@](O)(C(=O)CO)C[C@@H]3O[C@H]1C[C@H](N)[C@H](O)[C@H](C)O1 [ADR, Adriamycin]
IC50 (T98G): 0.17 µM
IC50 (LN-18): 0.09 µM
IC50 (LN-229): 0.13 µM
IC50 (A172): 0.07 µM
IC50 (U87MG): 0.11 µM
IC50 (U118MG): 0.12 µM

Nc1ccn([C@@H]2O[C@H](CO)[C@@H](O)C2(F)F)c(=O)n1 [GMZ, gemicitabin, reference compound]
IC50 (NCI-H460 (FAS positive)): 0.003 µM and 0.006 µM

Cn1nnc2c(C(N)=O)ncn2c1=O [TMZ, Temozolomide]
IC50 (T98G): 608 µM
IC50 (LN-18): 554 µM
IC50 (LN-229): 278 µM
IC50 (A172): 38.3 µM
IC50 (U87MG): 425 µM
effect of combination [2]: strong synergistic effect (a CI of <0.3 indicates a strong synergistic effect)
IC50 (U118MG): 382 µM
